US20070191315A1, “Method for administering ibandronate” (priority 2006, published 2007)

Tested on: metastatic bone pain
Assay: Multicenter, randomized, active-controlled, double-blind trial of pain (BPI worst/average pain scales)
Type: in vivo
Details: patients; ibandronic acid 6 mg IV over 15 min on Days 1, 2 and 3, then 50 mg orally daily from Day 22; 24 weeks; compared to placebo treatment
Procedure: A multicenter, randomized, active-controlled, double-blind, parallel groups trial is conducted. Patients are centrally randomized via an interactive voice response system (IVRS) to treatment either with ibandronic acid or zoledronic acid. Study treatment begins within 96 hours of randomization. Treatment continues for 24 weeks. Patients record their pain on the WORST PAIN and the AVERAGE PAIN scales of the BPI, as well as daily analgesic use, on a nightly basis. Patients record the degree to which their pain interferes with normal functioning and any opioid side-effects weekly. WHO Performance Status, quality of life based on the EORTC QLQ-C30 instrument and quality of life based on the FACT-BP, an instrument specifically designed to measure quality of life in patients with bone pain are recorded at Day 8 and Weeks 6, 12, 18 and 24 of the trial. Patients have skeletal surveys performed at Baseline and at Weeks 12 and 24 as part of the monitoring of SREs. Patients randomized to the ibandronic acid arm receive ibandronic acid 6 mg intravenously over 15 minutes on Days 1, 2 and 3 of the trial, followed by ibandronic acid 50 mg orally daily beginning on Day 22 of the study. Patients also receive a placebo infusion every 3-4 weeks, depending on the underlying chemotherapy regimens patients may be receiving. Patients who are not receiving chemotherapy receive placebo infusions every 3 weeks. […]

With `CCCCCN(C)CCC(O)(P(=O)(O)O)P(=O)(O)O` [ibandronate, 3-(N-methyl-N-pentyl)amino-1-hydroxypropane-1,1-diphosphonic acid] the pain scores was “significantly lower pain scores”.
